We go through 34 compounds from US8163804B2 (priority 2005, dated 2012).

Data set [1] concerns 2-spotted Spider Mite (Tetranychus urticae). Briefly: Insecticidal test on 2-spotted spider mite, kidney bean leaf disc with eggs, hatchability of larvae after 6 days. The note with it: 6 days after spraying. It counts as in vivo. Here is the method: Insecticidal Test on 2-spotted Spider Mite (Tetranychus urticae)
A plastic cup having a diameter of 8 cm was filled with water and covered by a lid with a hole having a diameter of 1 cm. Absorbent cotton was put on the top of the lid and dropped into water from the lid such that the absorbent cotton was always in a wet state due to a capillary phenomenon. A leaf disc having a diameter of 2 cm was prepared with primary leaves of kidney beans (cultivar: Green top) and placed on the aforementioned absorbent cotton. 4 adult female insects of Tetranychus urticae were inoculated thereon. Next day, the adult female insects were removed, and then the number of insect egg was examined. A liquid chemical which was prepared to the prescribed concentration was sprayed by using a vertical sprayer. After spraying, the resulting cup was allowed to stand in an isothermal chamber maintained at 25 degree centigrade. After 6 days from spraying, the number of hatched larvae that survived on the leaf disc was examined and the hatchability of larvae was calculated (two replications of one concentration per chemical).

The subject of data set [2] is Green Peach Aphid (Myzus persicae). It counts as in vivo.
For data set [3], the system named is Resistant Cotton Melon Aphid (Aphis gossypii). It counts as in vivo.
In data set [4] the test system is Small Brown Planthopper (Laodelphax striatellus). As to the kind of experiment: Insecticidal test on small brown planthopper, sprayed rice seedlings, mortality after 6 days. It counts as in vivo. Here is the method: Insecticidal Test on Small Brown Planthopper (Laodelphax striatellus)
A liquid chemical which was diluted and prepared to the prescribed concentration was sprayed on rice seedlings (cultivar: koshihikari), air-dried, and then 10 three-stage insects of Laodelphax striatellus were put into a glass test tube having a diameter of 3 cm and a height of 10 cm along with the seedlings. The test tube was cotton plugged. After 6 days from the treatment, the number of surviving insects was examined and the mortality was calculated (two replications of 10 insects per plot).

Data set [5] concerns Tiger Moth (Trichoplusia ni). Briefly: Insecticidal test on tiger moth, cabbage leaf dip, mortality after 6 days. The note with it: 6 days after treatment. It counts as in vivo. As for the experimental part:
Insecticidal Test on Tiger Moth (Trichoplusia ni)
Cut leaves of cabbages (cultivar: shiki-kaku) were immersed in a liquid chemical which was diluted and prepared to the prescribed concentration for 30 seconds, air-dried, and then put into a plastic vessel having a diameter of 9 cm. Each of 10 second-stage insects of Trichoplusia ni was inoculated and the resulting vessel was allowed to stand in an isothermal chamber maintained at 25 degree centigrade. After 6 days from the treatment, the number of surviving insects was examined and the mortality was calculated (two replications of 10 insects per plot).

For data set [6], the system named is Common Straight Swift Butterfly (Parnara guttata). As to the kind of experiment: Control test on common straight swift butterfly of paddy rice, powder spray, number of insects after 20 days (Test Example 9). It counts as in vivo. The following applies: 20 days after spraying. From the text:
(§1) Control Test on Common Straight Swift Butterfly (Parnara guttata) and Sheath Blight (Rhizoctonia solani) of Paddy Rice
(§2) A powder of a prescribed amount was sprayed on rice (cultivar: koshihikari) after 70 days from the transplantation (middle of May) Leaves on which Parnara guttata was parasitic before spraying were eliminated. After 20 days from spraying, the number of insects was examined for 100 stumps in each plot. Furthermore, 7 days before spraying, Rhizoctonia solani cultured on a bran medium was inoculated into the base of the plant. After 30 days from spraying, the number of infected stumps was examined for 100 stumps in each plot and the rate of infected stumps was calculated. In the Table, gai represents the amount of active ingredients (g).

The test system of data set [7] is Sheath Blight (Rhizoctonia solani). Briefly: Control test on sheath blight of paddy rice, powder spray, rate of infected stumps after 30 days. It counts as in vivo. The note with it: 30 days after spraying.
Excerpt: as §1, §2

In data set [8] the test system is Rice Blast (Pyricularia oryzae). It counts as in vivo.
In data set [9] the test system is Rice Striped Stem Borer (Chilo suppressalis).
Setting [10] is: 3 ppm, foliar spray on eggplant, 5 days after spraying.
[11] abbreviates: 3 ppm, foliar spray on cucumber, 5 days after spraying.
[12] abbreviates: 3 ppm, sprayed rice seedlings, 6 days after treatment.
Setting [13] is: Laodelphax striatellus, 144 h, 25 ppm, sprayed rice seedlings, 6 days after treatment.
Setting [14] is: 100 ppm, foliar spray on eggplant, 5 days after spraying.
Setting [15] is: 100 ppm, foliar spray on cucumber, 5 days after spraying.
[16] abbreviates: 250 ppm, foliar spray on eggplant, 5 days after spraying.
Setting [17] is: 250 ppm, foliar spray on cucumber, 5 days after spraying.

Like-named read-outs stand apart in the source and are kept apart here.

For `COc1ccc(-c2ccccc2)cc1NNC(=O)OC(C)C` [bifenazate], in data set [1] (5 ppm), the “Hatchability of larvae (%)” value came to 60%.
For the compound `CC(C)([CH2][Sn]([CH2]C(C)(C)c1ccccc1)([CH2]C(C)(C)c1ccccc1)[O][Sn]([CH2]C(C)(C)c1ccccc1)([CH2]C(C)(C)c1ccccc1)[CH2]C(C)(C)c1ccccc1)c1ccccc1` [fenbutatin oxide], the “Hatchability of larvae (%)” value in [1] (25 ppm) was 42%.
For milbemectin, the “Hatchability of larvae (%)” value in data set [1] (5 ppm) is on record as 18%.
Regarding `CN(C(=O)c1ccccc1)c1cccc(C(=O)Nc2c(Br)cc(SC(F)(F)C(F)(F)C(F)(F)F)cc2Br)c1` [Compound 1126], the “Control rate (%)” value turned out to be 0% in data set [2] (setting [10]) and 3% in [3] (setting [11]). The figures for the “Mortality (%)” value in data set [4] (setting [12]) and in data set [5] (0.5 ppm) were 10% and 70%, respectively. For the same compound, the “Hatchability of larvae (%)” value in data set [1] (50 ppm) was determined as 73%.
As for `O=C(Nc1ccccc1)N(Cc1ccc(Cl)cc1)C1CCCC1` [pencycuron], the “Number of insects (number/100 stumps)” value in [6] (60 gai/10a) is on record as 159 number/100 stumps. The “Rate of infected stumps (%)” value in [7] (60 gai/10a) is listed as 1%.
Take `Cc1cc(C(F)(C(F)(F)F)C(F)(F)F)cc(C)c1NC(=O)c1cccc(N(C)C(=O)c2ccc(C#N)cc2)c1F` [Compound 1217]: the “Control rate (%)” value in data set [2] (setting [10]) is 21%; in [3] (setting [11]), 15%. The “Mortality (%)” value in data set [4] (setting [12]) came to 15%; in [5] (0.5 ppm), 65%. In addition, the “Hatchability of larvae (%)” value in data set [1] (50 ppm) is given as 74%. Further, the “Pyricularia oryzae Control value” in [8] (in vivo) turned out to be 7. Further, in [9] (5 gai/box), the “Chilo suppressalis Mortality (%)” value worked out at 90%.
Consider `CN/C(=N/CC1CCOC1)N[N+](=O)[O-]` (centres unmarked) [dinotefuran], for which the entries for the “Control rate (%)” value in data set [2] (in vivo) and in data set [3] (in vivo) were 99% and 98%, respectively. The mortality (in general, the percentage killed) at 5 ppm in data set [4] (Laodelphax striatellus, 144 h, 5 ppm, sprayed rice seedlings, 6 days after treatment) was found to be 95%. In [5] (Trichoplusia, foliar, 144 h, 3 ppm), this compound had a mortality at 3 ppm of 40%.
As to `CCC(C)(C)C(=O)OC1=C(c2ccc(Cl)cc2Cl)C(=O)OC12CCCCC2` [spirodiclofen], the “Hatchability of larvae (%)” value in data set [1] (3 ppm) was determined as 50%.
The compound `CCOc1ccc([Si](C)(C)CCCc2ccc(F)c(Oc3ccccc3)c2)cc1` [silafluofen] yielded a mortality at 25 ppm in data set [4] (setting [13]) of 95%.
With `Cc1nn(C)c(Cl)c1C(=O)Nc1cccc2c1C(C)OC2(C)C` (centres unmarked) [furametpyr], in data set [6] (20 gai/10a), the “Number of insects (number/100 stumps)” value is listed as 161 number/100 stumps. Further, the “Rate of infected stumps (%)” value in data set [7] (20 gai/10a) is recorded as 2%.
On to `CCOc1cc(C(C)(C)C)ccc1C1COC(c2c(F)cccc2F)=N1` (centres unmarked) [etoxazol], for which, in data set [1] (0.1 ppm), the “Hatchability of larvae (%)” value is listed as 33%.
On to `CC(C)OC(=O)C(C(=O)OC(C)C)=C1SCCS1` [Isoprothiolane], for which the “Pyricularia oryzae Control value” in data set [8] (6 gai/box) worked out at 92. Also, in data set [9] (6 gai/box), the “Chilo suppressalis Mortality (%)” value came to 0%.
`CNC(=O)/C(=N/OC)c1ccccc1CO/N=C(C)/C(=N/OC)C(/C)=N/OC` [orysastrobin]: the “Pyricularia oryzae Control value” in data set [8] (3.5 gai/box) was 93. In addition, the “Chilo suppressalis Mortality (%)” value in data set [9] (3.5 gai/box) was found to be 5%.
`COP(=S)(OC)Oc1ccc([N+](=O)[O-])c(C)c1` [fenitrothion] had a mortality at 100 ppm in data set [4] (Laodelphax striatellus, 144 h) of 85%.
For `Cc1cccc2sc3nncn3c12` [tricyclazole], the “Pyricularia oryzae Control value” in [8] (2 gai/box) stood at 95. The “Chilo suppressalis Mortality (%)” value in data set [9] (in vivo) turned out to be 5%.
On to `CC1=NNC(=O)N(/N=C/c2cccnc2)C1` [pymetrozine], for which the “Control rate (%)” value is reported as 96% in data set [2] (setting [14]) and 95% in data set [3] (setting [15]). The compound also had a mortality at 25 ppm in data set [4] (setting [13]) of 95%.
The compound `N#Cc1nn(-c2c(Cl)cc(C(F)(F)F)cc2Cl)c(N)c1[S+]([O-])C(F)(F)F` (centres unmarked) [fipronil] came in with a mortality at 0.5 ppm in data set [5] (Trichoplusia, foliar, 144 h, 0.5 ppm) of 55%.
Take `COP(=O)(NC(C)=O)SC` (centres unmarked) [acephate]: the “Control rate (%)” value in data set [2] (setting [16]) amounted to 97%; in data set [3] (setting [17]) it was 0%.
Regarding `CN(C(=O)c1ccccc1F)c1cccc(C(=O)N(C)c2c(Br)cc(SC(F)(F)C(F)(F)C(F)(F)F)cc2Br)c1` [Compound 1617], the “Control rate (%)” value in data set [2] (setting [10]) is listed as 0%; in data set [3] (setting [11]), 5%. Besides, the “Mortality (%)” value turned out to be 5% in data set [4] (setting [12]) and 75% in data set [5] (0.5 ppm). In addition, in data set [1] (50 ppm), the “Hatchability of larvae (%)” value came to 78%.
`C=CCOC1=NS(=O)(=O)c2ccccc21` [probenazole]: the “Pyricularia oryzae Control value” in [8] (12 gai/box) is on record as 94. The “Chilo suppressalis Mortality (%)” value in data set [9] (12 gai/box) was 5%.
`CCCCCCCCCCCCC1=C(OC(C)=O)C(=O)c2ccccc2C1=O` [acequinocyl]: the “Hatchability of larvae (%)” value in data set [1] (5 ppm) is recorded as 29%.
With `CNC(=O)ON=C(C)SC` [methomyl], the “Control rate (%)” value in data set [2] (setting [16]) is recorded as 96%; in data set [3] (setting [17]), 10%.
Turning to `Cc1cc(C(F)(C(F)(F)F)C(F)(F)F)cc(C)c1NC(=O)c1cccc(NC(=O)c2cccnc2Cl)c1` [Compound No. 106, N-(2,6-dimethyl-4-heptafluoroisopropyl)phenyl 3-[(2-chloropyridin-3-yl)carbonylamino]benzamide], in data set [8] (in vivo), the “Pyricularia oryzae Control value” worked out at 5. Further, in [9] (5 gai/box), the “Chilo suppressalis Mortality (%)” value is 90%.
As to `C[C@@H](NC(=O)C(C#N)C(C)(C)C)c1ccc(Cl)cc1Cl` (some centres unmarked) [diclocymet], the “Pyricularia oryzae Control value” in data set [8] (1.5 gai/box) was 95. The “Chilo suppressalis Mortality (%)” value in data set [9] (1.5 gai/box) is 0%.
Consider spinosad, for which the “Mortality (%)” value in data set [5] (0.1 ppm) is reported as 60%.
On to `Cc1cc(C(F)(C(F)(F)F)C(F)(F)F)cc(C)c1NC(=O)c1cccc(N(C)C(=O)c2cccc(F)c2)c1F` [Compound 1219], for which the results for the “Control rate (%)” value in data set [2] (setting [10]) and in data set [3] (setting [11]) were 17% and 15%, respectively. The “Mortality (%)” value in data set [4] (setting [12]) amounted to 10%; in data set [5] (0.5 ppm), 65%. For the same compound, the “Hatchability of larvae (%)” value in data set [1] (50 ppm) worked out at 80%.
In the case of `CC[S+]([O-])c1c(C#N)nn(-c2c(Cl)cc(C(F)(F)F)cc2Cl)c1N` (centres unmarked) [ethiprole], the “Control rate (%)” value was found to be 98% in data set [2] (setting [14]) and 96% in data set [3] (setting [15]). Besides, the mortality at 25 ppm in data set [4] (setting [13]) was 90%.
Consider `CC(C)N1C(=O)N(c2ccccc2)CS/C1=N\C(C)(C)C` [buprofezin], for which the mortality at 25 ppm in data set [4] (setting [13]) is 95%.
Take `CC(C)(C)c1ccc(CSc2cnn(C(C)(C)C)c(=O)c2Cl)cc1` [pyridaben]: the “Hatchability of larvae (%)” value in data set [1] (2 ppm) came to 48%.
On to `CCOc1ccc(C(C)(C)COCc2cccc(Oc3ccccc3)c2)cc1` [ethofenprox], for which the entries for the “Control rate (%)” value in [2] (setting [14]) and in data set [3] (setting [15]) were 98% and 75%, respectively. Further, the “Mortality (%)” value in data set [4] (25 ppm, sprayed rice seedlings, 6 days after treatment) was 95%; in data set [5] (3 ppm), 45%.
Take `CN(C(=O)c1cccc(NC(=O)c2ccccc2)c1)c1c(Br)cc(SC(F)(F)C(F)(F)C(F)(F)F)cc1Br` [Compound 1480]: the “Control rate (%)” value in data set [2] (setting [10]) is given as 7%; in data set [3] (setting [11]) it was 3%. The “Mortality (%)” value in [4] (setting [12]) stood at 10%; in data set [5] (0.5 ppm), 75%. The “Hatchability of larvae (%)” value in [1] (50 ppm) came to 85%.
For `N#CCNC(=O)c1cnccc1C(F)(F)F` [flonicamid], the “Control rate (%)” value in [2] (setting [14]) and in data set [3] (setting [15]) was 97% in each case. Further, in data set [4] (20 ppm, sprayed rice seedlings, 6 days after treatment), the “Mortality (%)” value amounted to 95%.
On to `CC(C)Oc1cccc(NC(=O)c2ccccc2C(F)(F)F)c1` [flutolanil], for which the “Number of insects (number/100 stumps)” value in data set [6] (80 gai/10a) stood at 153 number/100 stumps. In addition, the “Rate of infected stumps (%)” value in data set [7] (80 gai/10a) was found to be 2%.
In the case of `Cc1c(Cl)cc(-c2ccc(=O)[nH]n2)cc1Cl` [diclomezine], the “Number of insects (number/100 stumps)” value in [6] (48 gai/10a) stood at 167 number/100 stumps. Moreover, the “Rate of infected stumps (%)” value in data set [7] (48 gai/10a) is listed as 3%.
